# Data: patent publication US9695155B2, “Herbicidal substituted pyrimidinyloxy benzene compounds” (E. I. DU PONT DE NEMOURS AND COMPANY, priority 2013, dated 2017)
# Assays:
# wheat = test: Test A preemergence; format: in vivo, Triticum aestivum; conditions: for plant injury at 125 g/ha / plant injury at 500 g/ha: Triticum aestivum, pre-emergence, 240 h, read-out: Wheat plant response rating; for plant injury at 500 g/ha / Wheat plant response rating: 0 to 100 scale, 0 no effect, 100 complete control, approx. 10 days
# Method in brief: (§1)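 Pre- and postemergence greenhouse screen. Soil: loam + sand. Spray carrier: solvent mixture, non-phytotoxic, with surfactant. Post timing at 1–2 leaves, height 2–10 cm. Readout: visual injury on a 0–100 scale roughly 10 days after application, untreated plants as reference.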
# giant foxtail [1] = test: Test A postemergence; format: in vivo, Setaria faberii; conditions: for pest or weed control at 125 g/ha / pest or weed control at 500 g/ha: Setaria faberi, post-emergence, 240 h; for pest or weed control at 125 g/ha: read-out: Plant response rating, Foxtail, Giant; for pest or weed control at 500 g/ha: read-out: Plant response rating Foxtail, Giant
# Method in brief: as §1
# morningglory = test: Test A postemergence; format: in vivo, Ipomoea spp.; conditions: for pest or weed control at 125 g/ha / pest or weed control at 500 g/ha: Ipomoea, post-emergence, 240 h; for pest or weed control at 125 g/ha: read-out: Plant response rating, Morningglory; for pest or weed control at 500 g/ha: read-out: Plant response rating Morningglory
# Method in brief: as §1
# Heteranthera limosa = test: Test B flooded paddy test; format: in vivo; conditions: Flood, 250 g ai/ha, 0 to 100 scale where 0 is no effect and 100 is complete control; for pest or weed control at 250 g/ha: Heteranthera limosa, read-out: Plant response rating, Ducksalad
# Method in brief: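 2-leaf stage plants; pots flooded to 3 cm, compound added to paddy water, depth maintained. Greenhouse 13–15 d. Visual rating vs untreated controls, 0 (no effect) to 100 (complete control); dash = no result.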
# corn = test: Test C preemergence; format: in vivo, Zea mays; conditions: Zea mays, pre-emergence
# Method in brief: (§2)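 Visual injury score versus untreated controls, 0 = no effect, 100 = complete control, taken 13 to 15 days after treatment in the greenhouse. Pre-emergence pots held loam/sand; post-emergence plants grew in sphagnum peat/vermiculite mix and were sprayed at the 1- to 4-leaf stage.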
# giant foxtail [2] = test: Test C preemergence; format: in vivo, Setaria faberii; conditions: Setaria faberi, pre-emergence
# Method in brief: as §2
# galium = test: Test C postemergence; format: in vivo, Galium aparine; conditions: for pest or weed control at 125 g/ha / pest or weed control at 250 g/ha / pest or weed control at 31 g/ha / pest or weed control at 62 g/ha: Galium, post-emergence; for pest or weed control at 125 g/ha / pest or weed control at 250 g/ha / Plant response rating (0 to 100), Galium: postemergence; for pest or weed control at 125 g/ha / pest or weed control at 250 g/ha: read-out: Plant response rating (0 to 100), Galium; for pest or weed control at 31 g/ha / pest or weed control at 62 g/ha / Plant response rating, Galium: Postemergence, scale 0 to 100 (0 no effect, 100 complete control); for pest or weed control at 31 g/ha / pest or weed control at 62 g/ha: read-out: Plant response rating, Galium
# Excerpt: Seeds of plant species selected from blackgrass (Alopecurus myosuroides), Italian ryegrass (Lolium multiflorum), wheat, winter (winter wheat, Triticum aestivum), galium (catchweed bedstraw, Galium aparine), corn (Zea mays), large (Lg) crabgrass (Digitaria sanguinalis), giant foxtail (Setaria faberii), johnsongrass (Sorghum halepense), lambsquarters (Chenopodium album), morningglory (Ipomoea coccinea), yellow nutsedge (Cyperus esculentus), pigweed (Amaranthus retroflexus), ragweed (common ragweed, Ambrosia elatior), soybean (Glycine max), barnyardgrass (Echinochloa crus-galli), oilseed rape (Brassica napus), waterhemp (common waterhemp, Amaranthus rudis), kochia (Kochia scoparia), wild oat (Avena fatua), surinam grass (Brachiaria decumbens), foxtail, green (green foxtail, Setaria viridis), goosegrass (Eleusine indica), bromegrass, downy (downy bromegrass, Bromus tectorum), nightshade (eastern black nightshade, Solanum ptycanthum), cocklebur (common cocklebur, Xanthium strumarium), cupgrass, woolly (woolly cupgrass, Eriochloa villosa), bermudagrass (Cynodon dactylon), sunflower, (common oilseed sunflower, Helianthus annuus), Russian thistle (Salsola kali), and velvetleaf (Abutilon theophrasti) were planted into a blend of loam soil and sand and treated preemergence with test chemicals formulated in a non-phytotoxic solvent mixture which included a surfactant.
# At the same time, plants selected from these crop and weed species and also barley, winter (winter barley, Hordeum vulgare), windgrass (Apera spica-venti), chickweed (common chickweed, Stellaria media), deadnettle (henbit deadnettle, Lamium amplexicaule), and canarygrass (littleseed canarygrass, Phalaris minor) were planted in pots containing Redi-Earth® planting medium (Scotts Company, 14111 Scottslawn Road, Marysville, Ohio 43041) comprising spaghnum peat moss, vermiculite, wetting agent and starter nutrients and treated with postemergence applications of test chemicals formulated in the same manner. Plants ranged in height from 2 to 18 cm (1- to 4-leaf stage) for postemergence treatments. Treated plants and controls were maintained in a greenhouse for 13 to 15 days, after which time all species were compared to controls and visually evaluated. Plant response ratings, summarized in Table C, are based on a scale of 0 to 100 where 0 is no effect and 100 is complete control. A dash (-) response means no test result.
# johnsongrass = test: Test C postemergence; format: in vivo, Sorghum halepense; conditions: for pest or weed control at 125 g/ha / pest or weed control at 250 g/ha / Plant response rating (0 to 100), Johnsongrass: postemergence; for pest or weed control at 125 g/ha / pest or weed control at 250 g/ha: read-out: Plant response rating (0 to 100), Johnsongrass
# Method in brief: as §2
# ragweed = test: Test C postemergence; format: in vivo, Ambrosia elatior; conditions: for pest or weed control at 125 g/ha / pest or weed control at 250 g/ha / pest or weed control at 31 g/ha / pest or weed control at 62 g/ha: Ambrosia artemisiifolia, post-emergence; for pest or weed control at 125 g/ha / pest or weed control at 250 g/ha / Plant response rating (0 to 100), Ragweed: postemergence; for pest or weed control at 125 g/ha / pest or weed control at 250 g/ha: read-out: Plant response rating (0 to 100), Ragweed; for pest or weed control at 31 g/ha / pest or weed control at 62 g/ha / Plant response rating, Ragweed: Postemergence, scale 0 to 100 (0 no effect, 100 complete control); for pest or weed control at 31 g/ha / pest or weed control at 62 g/ha: read-out: Plant response rating, Ragweed
# Method in brief: as §2
# [3] = 125 g ai/ha, 0 to 100 scale where 0 is no effect and 100 is complete control
# [4] = 500 g ai/ha, 0 to 100 scale, 0 no effect, 100 complete control
# [5] = Sorghum halepense, post-emergence, 125 g ai/ha
# [6] = Sorghum halepense, post-emergence, 250 g ai/ha
# [7] = Sorghum halepense, post-emergence, Postemergence, 31 g ai/ha, scale 0 to 100 (0 no effect, 100 complete control), 13 to 15 days, read-out: Plant response rating, Johnsongrass
# [8] = 1000 g ai/ha, 0 to 100 scale, 0 no effect, 100 complete control
# [9] = 8 g ai/ha, 0 is no effect, 100 is complete control
# [10] = 16 g ai/ha, 0 is no effect, 100 is complete control
Compound,plant injury at 125 g/ha (wheat; [3]),plant injury at 500 g/ha (wheat; 500 g ai/ha),pest or weed control at 125 g/ha (giant foxtail [1]; [3]),pest or weed control at 500 g/ha (giant foxtail [1]; [4]),pest or weed control at 125 g/ha (morningglory; [3]),pest or weed control at 500 g/ha (morningglory; [4]),pest or weed control at 250 g/ha (Heteranthera limosa),pest or weed control at 125 g/ha (galium; 125 g ai/ha),pest or weed control at 250 g/ha (galium; 250 g ai/ha),"pest or weed control at 31 g/ha (galium; 31 g ai/ha, 13 to 15 days)",pest or weed control at 62 g/ha (galium; 62 g ai/ha),pest or weed control at 125 g/ha (johnsongrass; [5]),pest or weed control at 250 g/ha (johnsongrass; [6]),pest or weed control at 31 g/ha (johnsongrass; [7]),pest or weed control at 125 g/ha (ragweed; 125 g ai/ha),pest or weed control at 250 g/ha (ragweed; 250 g ai/ha),"pest or weed control at 31 g/ha (ragweed; 31 g ai/ha, 13 to 15 days)",pest or weed control at 62 g/ha (ragweed; 62 g ai/ha),"Plant response rating, Ducksalad (Heteranthera limosa)",other results
"Clc1cnc(Oc2ccccc2-n2cc(Br)cn2)nc1 [Compound 7, 2-[2-(4-bromo-1H-pyrazol-1-yl)phenoxy]-5-chloropyrimidine]",0%,20%,90%,100%,70%,100%,80%,90%,98%,65%,80%,5%,10%,0%,55%,60%,50%,55%,–,"plant injury at 62 g/ha (corn; 62 g ai/ha, preemergence, scale 0 (no effect) to 100 (complete control), read-out: Corn plant response rating): 5%; plant injury at 125 g/ha (corn; 125 g ai/ha, preemergence, scale 0 (no effect) to 100 (complete control), read-out: Corn plant response rating): 5%; plant injury at 250 g/ha (corn; 250 g ai/ha, preemergence, scale 0 (no effect) to 100 (complete control), read-out: Corn plant response rating): 5%; Corn plant response rating (crop injury, 0 = no effect, 100 = complete kill) at 31 g/ha (corn; Preemergence, 31 g ai/ha, scale 0 to 100, 0 no effect, 100 complete control): 0%; pest or weed control at 62 g/ha (giant foxtail [2]; 62 g ai/ha, preemergence, scale 0 (no effect) to 100 (complete control), read-out: Foxtail, Giant plant response rating): 80%; pest or weed control at 125 g/ha (giant foxtail [2]; 125 g ai/ha, preemergence, scale 0 (no effect) to 100 (complete control), read-out: Foxtail, Giant plant response rating): 98%; pest or weed control at 250 g/ha (giant foxtail [2]; 250 g ai/ha, preemergence, scale 0 (no effect) to 100 (complete control), read-out: Foxtail, Giant plant response rating): 100%; pest or weed control at 31 g/ha (giant foxtail [2]; Preemergence, 31 g ai/ha, scale 0 to 100, 0 no effect, 100 complete control, read-out: Plant response rating, Foxtail, Giant): 40%; pest or weed control at 62 g/ha (johnsongrass; Sorghum halepense, post-emergence, Postemergence, 62 g ai/ha, scale 0 to 100 (0 no effect, 100 complete control), read-out: Plant response rating, Johnsongrass): 0%"
"Fc1cnc(Oc2ccccc2-n2cc(Br)cn2)nc1 [Compound 10, 2-[2-(4-bromo-1H-pyrazol-1-yl)phenoxy]-5-fluoropyrimidine]",0%,20%,50%,90%,90%,100%,75%,80%,95%,65%,80%,5%,10%,5%,55%,80%,50%,50%,–,–
N#Cc1cccc(Oc2ncc(F)cn2)c1-n1cc(Br)cn1 [Compound 62],–,–,–,–,–,–,–,–,–,–,–,–,–,–,–,–,–,–,80,"Plant response rating, Wheat (wheat; [3]): 0; Wheat plant response rating (wheat; 500 g ai/ha): 80; Plant response rating, Foxtail, Giant (giant foxtail [1]; [3]): 90; Plant response rating, Foxtail, Giant (giant foxtail [1]; [4]): 100; Plant response rating, Morningglory (morningglory; [3]): 90; Plant response rating, Morningglory (morningglory; [4]): 100; Plant response rating (0 to 100), Galium (galium; 125 g ai/ha): 80; Plant response rating (0 to 100), Galium (galium; 250 g ai/ha): 95; Plant response rating, Galium (galium; 31 g ai/ha, 13 to 15 days): 65; Plant response rating, Galium (galium; 62 g ai/ha): 65; Plant response rating (0 to 100), Johnsongrass (johnsongrass; 125 g ai/ha): 10; Plant response rating (0 to 100), Johnsongrass (johnsongrass; 250 g ai/ha): 15; Plant response rating, Johnsongrass (johnsongrass; Postemergence, 31 g ai/ha, scale 0 to 100 (0 no effect, 100 complete control), 13 to 15 days): 5; Plant response rating, Johnsongrass (johnsongrass; Postemergence, 62 g ai/ha, scale 0 to 100 (0 no effect, 100 complete control)): 5; Plant response rating (0 to 100), Ragweed (ragweed; 125 g ai/ha): 50; Plant response rating (0 to 100), Ragweed (ragweed; 250 g ai/ha): 50; Plant response rating, Ragweed (ragweed; 31 g ai/ha, 13 to 15 days): 40; Plant response rating, Ragweed (ragweed; 62 g ai/ha): 40"
CC(=NO)c1cn(-c2c(Br)cccc2Oc2ncc(Cl)cn2)nn1 [Compound 115],–,–,–,–,–,–,–,–,–,–,–,–,–,–,–,–,–,–,70,"Wheat plant response rating (wheat; 1000 g ai/ha): 40; Plant response rating, Foxtail, Giant (giant foxtail [1]; [8]): 90; Plant response rating, Morningglory (morningglory; [8]): 100; Plant response rating (0 to 100), Galium (galium; [9]): 5; Plant response rating (0 to 100), Galium (galium; [10]): 40; Plant response rating (0 to 100), Johnsongrass (johnsongrass; [9]): 5; Plant response rating (0 to 100), Johnsongrass (johnsongrass; [10]): 5; Plant response rating (0 to 100), Ragweed (ragweed; [9]): 5; Plant response rating (0 to 100), Ragweed (ragweed; [10]): 5"
